Consider 17 compounds from patent US11866430B2, “Naphthyridinone compounds useful as T cell activators” (priority 2018, dated 2024).

Read-outs that look alike come from different tables or passages of the source.

Assay [1] deals with pre-activated CD4 T cells and Raji cells. As to the kind of experiment: Raji CD4 T Cell IL2 Assay. The format is cell-based.
For a further assay, the target named is human DGKα (Homo sapiens (Human), UniProt P23743). Kind of assay: biochemical. As to conditions: detergent/lipid micelle substrate; read-out: DGKα IC50. The procedure: (§1) The DGKα and DGKζ reactions were performed using either extruded liposome (DGKα and DGKζ LIPGLO assays) or detergent/lipid micelle substrate (DGKα and DGKζ assays). The reactions were carried out in 50 mM MOPS pH 7.5, 100 mM NaCl, 10 mM MgCl2, 1 μM CaCl2, and 1 mM DTT (assay buffer). The reactions using a detergent/lipid micelle substrate also contained 50 mM octyl B-D-glucopyranoside. […] The lipid substrate concentrations were […], 0.25 mM DAG, and 2.75 mM PC for the extruded liposome reactions.
Sequence of human DGKα (P23743 other isoform, or with tags, fused parts or gaps): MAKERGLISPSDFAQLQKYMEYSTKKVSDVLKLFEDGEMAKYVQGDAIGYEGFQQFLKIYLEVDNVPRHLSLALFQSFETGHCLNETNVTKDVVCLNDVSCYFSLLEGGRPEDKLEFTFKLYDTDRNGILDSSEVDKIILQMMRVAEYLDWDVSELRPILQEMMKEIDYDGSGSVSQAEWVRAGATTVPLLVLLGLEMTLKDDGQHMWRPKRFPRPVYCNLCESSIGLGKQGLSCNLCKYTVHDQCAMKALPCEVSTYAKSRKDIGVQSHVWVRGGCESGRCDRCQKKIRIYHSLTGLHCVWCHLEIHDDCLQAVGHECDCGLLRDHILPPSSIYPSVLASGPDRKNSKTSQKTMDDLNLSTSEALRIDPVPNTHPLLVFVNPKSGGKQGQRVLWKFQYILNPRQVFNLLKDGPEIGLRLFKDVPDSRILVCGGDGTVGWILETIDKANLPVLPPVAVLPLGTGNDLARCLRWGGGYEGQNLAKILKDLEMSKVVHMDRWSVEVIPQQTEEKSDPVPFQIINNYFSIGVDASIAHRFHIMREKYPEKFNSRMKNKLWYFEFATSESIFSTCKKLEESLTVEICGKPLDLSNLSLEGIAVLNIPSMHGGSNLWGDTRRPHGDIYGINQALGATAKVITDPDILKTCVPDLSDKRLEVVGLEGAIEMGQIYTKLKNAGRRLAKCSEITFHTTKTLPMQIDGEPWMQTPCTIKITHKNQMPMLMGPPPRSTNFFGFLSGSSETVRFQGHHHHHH
(§2) The compound inhibition studies were carried out as follows: 50 nL droplets of each test compound (top concentration 10 mM with 11 point, 3-fold dilution series for each compound) solubilized in DMSO were transferred to wells of a white 1536 well plate (Corning 3725). A 5 mL enzyme/substrate solution at 2× final reaction concentration was prepared by combining 2.5 mL 4× enzyme solution (20 nM DGKα or DGKζ (prepared as described below) in assay buffer) and 2.5 mL of either 4× liposome or 4× detergent/lipid micelle solution (compositions described below) and incubated at room temperature for 10 minutes. Next, 1 μL 2× enzyme/substrate solution was added to wells containing the test compound and reactions were initiated with the addition of 1 μL 300 uM ATP. The reactions were allowed to proceed for 1 hr, after which 2 μL Glo Reagent (Promega V9101) was added and incubated for 40 minutes. Next, 4 μL Kinase Detection Reagent was added and incubated for 30 minutes. Luminescence was recorded using an EnVision microplate reader. […] The compounds were evaluated at 11 concentrations to determine IC50.
(§3) The detergent/lipid micelle was prepared by combining 15 g phosphatidylserine (Avanti 840035P) and 1 g diacylglycerol (800811O) and dissolving into 150 mL chloroform in a 2 L round bottom flask. Chloroform was removed under high vacuum by rotary evaporation. The resulting colorless, tacky oil was resuspended in 400 mL 50 mM MOPS pH 7.5, 100 mM NaCl, 20 mM NaF, 10 mM MgCl2, 1 μM CaCl2), 1 mM DTT, and 200 mM octyl glucoside by vigorous mixing. The lipid/detergent solution was split into 5 mL aliquots and stored at −80° C.
(§4) Human DGK-alpha-TVMV-His-pFBgate and human DCK-zeta-transcript variant-2-TVMV-His-pFBgate baculovirus samples were generated using the Bac-to-Bac baculovirus expression system (Invitrogen) according to the manufacturer's protocol. The DNA used for expression of DGK-alpha and DGK-zeta have SEQ ID NOs: 1 and 3, respectively. Baculovirus amplification was achieved using infected Sf9 cells at 1:1500 virus/cell ratios, and grown for 65 hours at 27° C. post-transfection.
(§5) The expression scale up for each protein was carried out in the Cellbag 50 L WAVE-Bioreactor System 20/50 from GE Healthcare Bioscience. 12 L of 2×10^6 cells/mL Sf9 cells (Expression System, Davis, Calif.) grown in ESF921 insect medium (Expression System) were infected with virus stock at 1:200 virus/cell ratios, and grown for 66-68 hours at 27° C. post-infection. The infected cell culture was harvested by centrifugation at 2000 rpm for 20 min 4° C. in a SORVALL® RC12BP centrifuge. The cell pellets were stored at −70° C. until purification.
(§6) Full length human DGKα and DGKζ, each expressed containing a TVMV-cleavable C-terminal Hexa-His tag sequence (SEQ ID NOs: 2 and 4, respectively) and produced as described above, were purified from Sf) baculovirus-infected insect cell paste. The cells were lysed using nitrogen cavitation method with a nitrogen bomb (Parr Instruments), and the lysates were clarified by centrifugation. […] The three steps column chromatography included nickel affinity resin capture (i.e. HisTrap FF crude, GE Healthcare), followed by size exclusion chromatography (i.e. HiLoad 26/600 Superdex 200 prep grade, GE Healthcare for DGK-alpha, and HiPrep 26/600 Sephacryl S 300_HR, GE Healthcare for DGK-zeta).

A further assay concerns the target human DGKζ (Homo sapiens (Human), UniProt Q13574). Kind of assay: DGKζ assay (detergent/lipid micelle substrate). As to conditions: detergent/lipid micelle substrate; read-out: DGKζ IC50. The format is biochemical. The procedure: as §1, §2, §3, §4, §5, §6

Sequence of human DGKζ (Q13574 other isoform, or with tags, fused parts or gaps): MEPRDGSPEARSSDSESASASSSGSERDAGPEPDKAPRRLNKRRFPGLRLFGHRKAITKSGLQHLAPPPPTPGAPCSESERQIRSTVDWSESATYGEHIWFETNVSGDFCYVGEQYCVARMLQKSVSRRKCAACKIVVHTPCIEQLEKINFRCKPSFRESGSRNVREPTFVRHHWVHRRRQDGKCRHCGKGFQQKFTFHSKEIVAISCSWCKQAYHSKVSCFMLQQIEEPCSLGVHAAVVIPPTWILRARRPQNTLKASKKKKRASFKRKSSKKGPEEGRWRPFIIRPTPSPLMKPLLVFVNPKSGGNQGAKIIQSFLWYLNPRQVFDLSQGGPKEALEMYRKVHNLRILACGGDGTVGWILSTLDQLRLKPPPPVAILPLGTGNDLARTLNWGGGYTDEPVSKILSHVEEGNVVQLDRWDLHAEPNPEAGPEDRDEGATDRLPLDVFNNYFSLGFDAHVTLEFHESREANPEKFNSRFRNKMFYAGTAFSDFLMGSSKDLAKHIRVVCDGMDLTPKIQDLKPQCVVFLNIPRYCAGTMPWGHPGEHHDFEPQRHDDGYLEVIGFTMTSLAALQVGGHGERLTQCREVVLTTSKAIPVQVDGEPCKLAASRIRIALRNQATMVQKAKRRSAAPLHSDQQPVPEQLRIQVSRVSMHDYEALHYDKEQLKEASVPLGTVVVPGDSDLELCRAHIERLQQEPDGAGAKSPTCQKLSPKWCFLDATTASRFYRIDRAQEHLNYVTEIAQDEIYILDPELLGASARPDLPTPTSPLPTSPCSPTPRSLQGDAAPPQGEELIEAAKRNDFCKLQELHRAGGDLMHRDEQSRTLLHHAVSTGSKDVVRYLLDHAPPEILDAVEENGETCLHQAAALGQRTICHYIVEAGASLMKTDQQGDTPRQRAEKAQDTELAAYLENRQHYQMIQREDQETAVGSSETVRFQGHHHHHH

For orientation: IC50 means the concentration that inhibits the measured activity by half. `Cn1c(=O)c(C#N)c(N2CCN(C(c3ccc(F)cc3)c3ccccc3O)CC2)c2nc(Br)ccc21` (racemic) [Example 8, 6-bromo-4-{4-[(4-fluorophenyl)(2-hydroxyphenyl)methyl]piperazin-1-yl}-1-methyl-2-oxo-1,2-dihydro-1,5-naphthyridine-3-carbonitrile] yielded a 50% inhibitory concentration (IC50) in assay [1] (Homo sapiens, Raji) of 91 nM. Consider `COc1ccccc1C(c1ccc(F)cc1)N1CCN(c2c([N+](=O)[O-])c(=O)n(C)c3ccc(C#N)nc23)CC1` (racemic) [Example 18, 8-{4-[(4-fluorophenyl)(2-methoxyphenyl)methyl]piperazin-1-yl}-5-methyl-7-nitro-6-oxo-5,6-dihydro-1,5-naphthyridine-2-carbonitrile], for which the IC50 on human DGKα came out at 960 nM; in assay [1] (Homo sapiens, Raji), 23 nM; at human DGKζ, 2500 nM. `C#CCn1c(=O)c(C#N)c(N2CCN(C(c3ccc(F)cc3)c3ccccc3O)CC2)c2nc(Br)ccc21` (racemic) [Example 105, 6-bromo-4-(4-((4-fluorophenyl)(2-hydroxyphenyl)methyl)piperazin-1-yl)-2-oxo-1-(prop-2-yn-1-yl)-1,2-dihydro-1,5-naphthyridine-3-carbonitrile]: the IC50 came to 580 nM at human DGKα and 2500 nM on human DGKζ.

As for `C#CCn1c(=O)c([N+](=O)[O-])c(N2CCN(C(c3ccc(F)cc3)c3ccc(F)cc3O)CC2)c2nc(C#N)ccc21` (racemic) [Example 119, 8-(4-((4-fluoro-2-hydroxyphenyl)(4-fluorophenyl)methyl)piperazin-1-yl)-7-nitro-6-oxo-5-(prop-2-yn-1-yl)-5,6-dihydro-1,5-naphthyridine-2-carbonitrile], the IC50 at human DGKα stood at 970 nM; at human DGKζ it was 190 nM.

`COc1cc(F)ccc1C(c1ccc(F)cc1)N1CCN(c2c([N+](=O)[O-])c(=O)n(C)c3ccc(C#N)nc23)CC1` (racemic) [Example 123, 8-(4-((4-fluoro-2-methoxyphenyl)(4-fluorophenyl)methyl)piperazin-1-yl)-5-methyl-7-nitro-6-oxo-5,6-dihydro-1,5-naphthyridine-2-carbonitrile]: on human DGKα, the IC50 is 2300 nM. Regarding `C#CCn1c(=O)c([N+](=O)[O-])c(N2CCN(C(c3ccc(F)cc3)c3ccc(F)cc3OC)CC2)c2nc(C#N)ccc21` (racemic) [Example 126, 8-(4-((4-fluoro-2-methoxyphenyl)(4-fluorophenyl)methyl)piperazin-1-yl)-7-nitro-6-oxo-5-(prop-2-yn-1-yl)-5,6-dihydro-1,5-naphthyridine-2-carbonitrile], the values for the IC50 on human DGKα and on human DGKζ were 6100 nM and 330 nM, respectively.

Take `C#CCOc1ccccc1C(c1ccc(F)cc1)N1CCN(c2c(C#N)c(=O)n(C)c3ccc(Br)nc23)CC1` (single isomer, unassigned) [Example 6, 6-bromo-4-{4-[(4-fluorophenyl) [2-(prop-2-yn-1-yloxy)phenyl]methyl]piperazin-1-yl}-1-methyl-2-oxo-1,2-dihydro-1,5-naphthyridine-3-carbonitrile]: the half-inhibitory concentration (IC50) on human DGKα is 6500 nM; in assay [1], 820 nM; on human DGKζ, more than 240000 nM.

As to `C#CCOc1ccccc1C(c1ccc(F)cc1)N1CCN(c2c(C#N)c(=O)n(C)c3ccc(Br)nc23)CC1` (single isomer, unassigned) [Example 7, 6-bromo-4-{4-[(4-fluorophenyl) [2-(prop-2-yn-1-yloxy)phenyl]methyl]piperazin-1-yl}-1-methyl-2-oxo-1,2-dihydro-1,5-naphthyridine-3-carbonitrile], the IC50 at human DGKα came to 500 nM; in assay [1] it was 75 nM; on human DGKζ, 120000 nM. The compound `Cn1c(=O)c(C#N)c(N2CCN(C(c3ccc(F)cc3)c3ccccc3O)CC2)c2nc(Br)ccc21` (single isomer, unassigned) [Example 9, 6-bromo-4-{4-[(4-fluorophenyl)(2-hydroxyphenyl)methyl]piperazin-1-yl}-1-methyl-2-oxo-1,2-dihydro-1,5-naphthyridine-3-carbonitrile] gave an IC50 in assay [1] of more than 100000 nM.

In the case of `Cn1c(=O)c(C#N)c(N2CCN(C(c3ccc(F)cc3)c3ccccc3O)CC2)c2nc(Br)ccc21` (single isomer, unassigned) [Example 10, 6-bromo-4-{4-[(4-fluorophenyl)(2-hydroxyphenyl)methyl]piperazin-1-yl}-1-methyl-2-oxo-1,2-dihydro-1,5-naphthyridine-3-carbonitrile], the IC50 in assay [1] is 3 nM. On to `Cn1c(=O)c(C#N)c(N2CCN(CC(O)c3ccc(F)cc3)CC2)c2nc(Br)ccc21` (single isomer, unassigned) [Example 29, 6-bromo-4-{4-[2-(4-fluorophenyl)-2-hydroxyethyl]piperazin-1-yl}-1-methyl-2-oxo-1,2-dihydro-1,5-naphthyridine-3-carbonitrile], for which the IC50 is 570 nM on human DGKα, 2300 nM in assay [1] and more than 240000 nM at human DGKζ. `Cn1c(=O)c(C#N)c(N2CCN(CC(O)c3ccc(F)cc3)CC2)c2nc(Br)ccc21` (single isomer, unassigned) [Example 30, 6-bromo-4-{4-[2-(4-fluorophenyl)-2-hydroxyethyl]piperazin-1-yl}-1-methyl-2-oxo-1,2-dihydro-1,5-naphthyridine-3-carbonitrile]: the half-inhibitory concentration (IC50) at human DGKα is 1800 nM; in assay [1], 1100 nM; on human DGKζ, 140000 nM.

For the compound `Cn1c(=O)c(C#N)c(N2CCN(C3CCc4cc(F)cc(O)c43)CC2)c2nc(Cl)ccc21` (stereo not drawn) [Example 201, 6-chloro-4-(4-(5-fluoro-7-hydroxy-2,3-dihydro-1H-inden-1-yl)piperazin-1-yl)-1-methyl-2-oxo-1,2-dihydro-1,5-naphthyridine-3-carbonitrile], the 50% inhibitory concentration (IC50) in assay [1] (Homo sapiens, Raji) was found to be 22000 nM. In the case of `Cn1c(=O)c(C#N)c(N2CCN(C(c3ccc(F)cc3)c3ccc(F)cc3O)CC2)c2nc(Cl)ccc21` (stereo not drawn) [Example 222, 6-chloro-4-(4-((4-fluoro-2-hydroxyphenyl)(4-fluorophenyl)methyl)piperazin-1-yl)-1-methyl-2-oxo-1,2-dihydro-1,5-naphthyridine-3-carbonitrile], the IC50 on human DGKα worked out at 83 nM; in assay [1] (Homo sapiens, Raji) it was 68 nM. As to `Cc1ccc2c(n1)c(N1CCN(C(c3ccc(F)cc3)c3ccc(F)cc3)CC1)c(F)c(=O)n2C` [Example 234, 4-(4-(bis(4-fluorophenyl)methyl)piperazin-1-yl)-3-fluoro-1,6-dimethyl-1,5-naphthyridin-2(1H)-one], the IC50 turned out to be 16000 nM at human DGKα and 130 nM in assay [1] (Homo sapiens, Raji). With `COc1ccc(CN2CCN(c3c(C#N)c(=O)n(C)c4ccc(Cl)nc34)CC2)c(O)c1` [Example 301, 6-chloro-4-{4-[(2-hydroxy-4-methoxyphenyl)methyl]piperazin-1-yl}-1-methyl-2-oxo-1,2-dihydro-1,5-naphthyridine-3-carbonitrile], on human DGKζ, the concentration for half-maximal inhibition (IC50) was more than 240000 nM. As for `Cn1c(=O)c(C#N)c(N2CCN(Cc3cccc(Br)c3O)CC2)c2nc(Br)ccc21` [Example 380, 6-bromo-4-{4-[(3-bromo-2-hydroxyphenyl)methyl]piperazin-1-yl}-1-methyl-2-oxo-1,2-dihydro-1,5-naphthyridine-3-carbonitrile], the values for the half-maximal inhibitory concentration (IC50) at human DGKα and on human DGKζ were 830 nM and more than 240000 nM, respectively.
